Test results from ChEMBL document CHEMBL4665719, “Development of SKI-349, a dual-targeted inhibitor of sphingosine kinase and microtubule polymerization” (Bioorg Med Chem Lett, 2020).
Calls of active or inactive are those of the source. The calls are words filed in the database; no cut-off is given here.

What was measured:
[1] = target: T1, Sphingosine kinase 1/2 (Homo sapiens) (UniProt Q9NRA0+Q9NYA1); test: Inhibition of SPHK1/SPHK2 in human HL-60 cells assessed as induction of apoptosis by measuring spindle assembly checkpoint arrest at 20 nM after 16 hrs by Western blot analysis; type: cell-based
T1 sequence (Q9NRA0 whole entry, looked up): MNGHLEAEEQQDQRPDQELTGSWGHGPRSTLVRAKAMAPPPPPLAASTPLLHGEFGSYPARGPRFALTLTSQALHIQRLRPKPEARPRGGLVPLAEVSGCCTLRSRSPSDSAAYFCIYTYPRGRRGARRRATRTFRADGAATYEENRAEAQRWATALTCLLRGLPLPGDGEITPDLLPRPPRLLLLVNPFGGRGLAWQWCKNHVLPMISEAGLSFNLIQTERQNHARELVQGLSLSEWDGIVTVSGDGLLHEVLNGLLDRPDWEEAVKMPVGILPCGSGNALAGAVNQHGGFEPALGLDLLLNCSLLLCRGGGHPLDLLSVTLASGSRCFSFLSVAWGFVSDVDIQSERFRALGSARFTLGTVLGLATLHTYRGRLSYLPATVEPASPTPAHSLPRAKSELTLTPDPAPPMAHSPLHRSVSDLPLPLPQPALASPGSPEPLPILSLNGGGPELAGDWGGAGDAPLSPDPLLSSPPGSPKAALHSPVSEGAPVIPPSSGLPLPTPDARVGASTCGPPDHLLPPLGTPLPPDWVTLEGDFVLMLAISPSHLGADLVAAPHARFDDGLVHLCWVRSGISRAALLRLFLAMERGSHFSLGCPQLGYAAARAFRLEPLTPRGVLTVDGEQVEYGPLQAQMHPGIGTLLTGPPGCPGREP
T1 sequence (Q9NYA1 whole entry, looked up): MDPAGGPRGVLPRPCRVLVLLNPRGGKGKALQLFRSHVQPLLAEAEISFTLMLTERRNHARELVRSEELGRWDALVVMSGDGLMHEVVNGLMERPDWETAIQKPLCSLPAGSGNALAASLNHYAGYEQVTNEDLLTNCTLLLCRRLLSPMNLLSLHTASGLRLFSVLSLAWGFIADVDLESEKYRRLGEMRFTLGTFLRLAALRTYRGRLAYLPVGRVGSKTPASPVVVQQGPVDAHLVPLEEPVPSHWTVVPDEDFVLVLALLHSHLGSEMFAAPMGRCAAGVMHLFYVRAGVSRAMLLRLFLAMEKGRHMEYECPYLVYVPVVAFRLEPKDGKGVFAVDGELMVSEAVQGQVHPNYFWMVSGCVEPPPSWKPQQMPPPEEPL

[2] = target: T1, Sphingosine kinase 1/2 (Homo sapiens); test: Inhibition of SPHK1/SPHK2 in human HL-60 cells assessed as induction of apoptosis by measuring spindle assembly checkpoint arrest at 3 nM after 16 hrs by Western blot analysis; type: cell-based
Tubulin (Homo sapiens) [3] = target: T2, Tubulin (Homo sapiens) (UniProt P68371+Q9H4B7+P0DPH7+P68366+Q13509+Q71U36+P04350+Q3ZCM7+P07437+P68363+Q9BQE3+Q6PEY2+Q13885+Q9BVA1+Q9BUF5); test: Inhibition of tubulin polymerization in human MOLM-13 cells assessed as disruption of microtubule network at 100 nM after 18 hrs by FITC-staining based flow cytometry analysis; type: cell-based
[4] = target: Cyclin-dependent kinase 1 (Homo sapiens) (UniProt P06493); test: Activation of CDK1 in human HL60/VCR cells assessed as activation of caspase 7 at 5 uM after 24 hrs in presence of Ro-3306 by Western blot analysis; type: cell-based
Sequence of Cyclin-dependent kinase 1 (Homo sapiens) (P06493 whole entry, looked up): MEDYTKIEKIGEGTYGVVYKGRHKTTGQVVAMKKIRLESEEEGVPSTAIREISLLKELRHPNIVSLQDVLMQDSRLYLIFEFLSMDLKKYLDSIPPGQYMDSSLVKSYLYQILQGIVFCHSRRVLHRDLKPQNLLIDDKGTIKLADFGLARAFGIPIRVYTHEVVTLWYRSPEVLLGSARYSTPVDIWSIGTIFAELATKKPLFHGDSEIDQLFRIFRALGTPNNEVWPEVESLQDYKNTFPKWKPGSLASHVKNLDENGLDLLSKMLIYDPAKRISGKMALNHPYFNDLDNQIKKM

[5] = target: T1, Sphingosine kinase 1/2 (Homo sapiens); test: Inhibition of SPHK1/SPHK2 in human HL-60 cells assessed as C18:0 ceramide level assessed per 10^6 cells at 5 uM after 24 hrs by LC-ESI/MS analysis (reference value: 1.6 +/- 0.2 pmol); type: cell-based
[6] = target: T1, Sphingosine kinase 1/2 (Homo sapiens); test: Inhibition of SPHK1/SPHK2 in human HL-60 cells assessed as sphingosine-1-phosphate level assessed per 10^6 cells at 5 uM after 24 hrs by LC-ESI/MS analysis (reference value: 3.1 +/- 0.3 pmol); type: cell-based
[7] = target: T1, Sphingosine kinase 1/2 (Homo sapiens); test: Inhibition of SPHK1/SPHK2 in human HL-60 cells assessed as C16:0 ceramide level assessed per 10^6 cells at 5 uM after 24 hrs by LC-ESI/MS analysis (reference value: 33.5 +/- 4.1 pmol); type: cell-based
[8] = target: Cyclin-dependent kinase 1 (Homo sapiens) (UniProt P06493); test: Activation of CDK1 in human HL60/VCR cells assessed as induction of Bcl2 phosphorylation at Ser70 residue at 5 uM after 24 hrs in presence of Ro-3306 by Western blot analysis; type: cell-based
Sphingosine kinase 1 = Sphingosine kinase 1 (Homo sapiens, UniProt Q9NYA1); test: Inhibition of recombinant His6x-tagged human SphK1 expressed in HEK293 cells assessed as reduction in S1P formation using D-erythro-sphingosine as substrate by […]
Sequence of Sphingosine kinase 1 (Q9NYA1 whole entry): as the sequence (Q9NYA1 whole entry, looked up) above

[9] = target: T1, Sphingosine kinase 1/2 (Homo sapiens); test: Inhibition of SPHK1/SPHK2 in human HL-60 cells assessed as sphingosine level assessed per 10^6 cells at 5 uM after 24 hrs by LC-ESI/MS analysis (reference value: 18.3 +/- 3.5 pmol); type: cell-based
HL-60 = test: Cytotoxicity against human HL-60 cells assessed as reduction in cell viability after 48 hrs by MTT assay; type: functional, cell-based; conditions: HL-60, 48 h
[10] = target: Cyclin-dependent kinase 1 (Homo sapiens) (UniProt P06493); test: Activation of CDK1 in human HL-60 cells assessed as induction of Bcl2 phosphorylation at Ser70 residue at 5 uM after 24 hrs in presence of Ro-3306 by Western blot analysis; type: cell-based
[11] = Cytotoxicity against human HL60/VCR cells assessed as reduction in cell viability after 48 hrs by MTT assay; type: functional, cell-based
[12] = target: Cyclin-dependent kinase 1 (Homo sapiens) (UniProt P06493); test: Activation of CDK1 in human HL-60 cells assessed as activation of caspase 7 at 5 uM after 24 hrs in presence of Ro-3306 by Western blot analysis; type: cell-based
Tubulin (Homo sapiens) [13] = target: T2, Tubulin (Homo sapiens); test: Inhibition of tubulin polymerization in human MOLM-13 cells assessed as disruption of microtubule network at 200 nM after 18 hrs by FITC-staining based flow cytometry analysis; type: cell-based

**Q.** Which Activity [1] does the source give for `CC[C@@H]1C(=O)N(C)c2cnc(Nc3ccc(C(=O)N[C@H]4CC[C@H](N5CCN(CC6CC6)CC5)CC4)cc3OC)nc2N1C(C)C` here?
**A.** Its Activity is “Active”.

**Q.** With `Cc1ccc(C(=O)N(CCCN)[C@@H](c2nc3cc(Cl)ccc3c(=O)n2Cc2ccccc2)C(C)C)cc1` as the compound, how does the Activity [2] read?
**A.** The Activity was “Active”.

**Q.** For `CC(=O)O[C@H]1C(=O)[C@@]2(C)[C@H]([C@H](OC(=O)c3ccccc3)[C@]3(O)C[C@H](OC(=O)[C@H](O)[C@@H](NC(=O)c4ccccc4)c4ccccc4)C(C)=C1C3(C)C)[C@]1(OC(C)=O)CO[C@@H]1C[C@@H]2O`, which inhibition (Tubulin (Homo sapiens) [3]) is on record?
**A.** The inhibition was “Active”.

**Q.** With `COc1ccc(-c2cc(C(=O)N/N=C(\C)c3ccc(OC)c(OC)c3)[nH]n2)cc1` as the compound, how does the Activity [4] read?
**A.** The Activity was “inactive”.

**Q.** And the Activity [5]?
**A.** Its Activity is 4.8 pmol.

**Q.** And the Activity [6]?
**A.** The Activity was 3.2 pmol.

**Q.** And the Activity [7]?
**A.** Its Activity is 84 pmol.

**Q.** What about the Activity [8] of the same compound?
**A.** Its Activity is “inactive”.

**Q.** What about the IC50 (Sphingosine kinase 1) of the same compound?
**A.** The IC50 was 3000 nM.

**Q.** What about the Activity [9] of the same compound?
**A.** The Activity was 28.7 pmol.

**Q.** What about the IC50 (HL-60) of the same compound?
**A.** The IC50 was 470 nM.

**Q.** What about the Activity [10] of the same compound?
**A.** Its Activity is “inactive”.

**Q.** What about the IC50 [11] of the same compound?
**A.** Its IC50 is 1100 nM.

**Q.** And the Activity [12]?
**A.** Its Activity is “inactive”.

**Q.** With `CC[C@]1(O)C[C@H]2CN(CCc3c([nH]c4ccccc34)[C@@](C(=O)OC)(c3cc4c(cc3OC)N(C=O)[C@H]3[C@@](O)(C(=O)OC)[C@H](OC(C)=O)[C@]5(CC)C=CCN6CC[C@]43[C@@H]65)C2)C1` as the compound, how does the inhibition (Tubulin (Homo sapiens) [13]) read?
**A.** The inhibition was “Active”.
